Test results from ChEMBL document CHEMBL3046225, “Effects of Enantiomerism on Fungicidal and Insecticidal Activities of (-Methoxybenzyl)isoxazoles” (J Pestic Sci, 2000).
Values after ≈ are worked out from the molar mass of the structure shown.

What was measured:
Myzus persicae = test: Insecticidal activity against Myzus persicae (green peach aphid) assessed as mortality; type: functional
[1] = system: Pseudoperonospora cubensis; test: Fungicidal activity against Pseudoperonospora cubensis; type: functional, organism-based
Podosphaera fuliginea = test: Fungicidal activity against Podosphaera fuliginea; type: functional, organism-based

SMILES | LC50 (Myzus persicae) [µg/mL] | EC50 [1] [ppm] | EC50 (Podosphaera fuliginea) [ppm]
CO[C@H](c1cc(C)no1)c1ccccc1/C=N/N=C(\C)c1ccc(Cl)c(Cl)c1 | > 250 | > 500 | 8.8
CO[C@@H](c1cc(C)no1)c1ccccc1/C=N/N=C(\C)c1ccc(Cl)c(Cl)c1 | 20 (≈ 48 µM) | 16 | 0.7
COC(c1cc(C)no1)c1ccccc1/C=N/N=C(\C)c1ccc(Cl)c(Cl)c1 (racemic) | 53 (≈ 127 µM) | 32 | 2
